Data from US9079152B2, “Encapsulated essential oils” (BEN GURION UNIVERSITY OF THE NEGEV RESEARCH AND DEVELOPMENT …, priority 2004, dated 2015).

Tested on: mosquito larvae
Experiment: Comparison tests of cyromazine for larvicidal activity
Assay type: in vivo
Settings: 0.5 g/m^2 of cyromazine; after 3 days
Description: Tests with cyromazine, an insect growth regulator produced by Novartis, was tested for larvicidal activity, either as such or in encapsulated form An effective concentration of 0.5 g/m^2 of cyromazine gave 60% mortality after 3 days, and the best sustained-release formulation gave. 100% mortality after 8 days.

SMILES: Nc1nc(N)nc(NC2CC2)n1 [cyromazine]
- mortality: 60%
